Tested on: α-SMA expression induced by TGFβ2 in cardiac fibroblasts
Assay: Fibrosis inhibition evaluation 2: immunofluorescent staining of α-SMA in cardiac fibroblasts
Assay type: cell-based, rats
Settings: 10 μM, TGFβ2 2 ng/ml, 48 hours, FIG. 8
Procedure: In the same manner as in Test Example 5, dermal fibroblasts were isolated from mice, and sterilized cover glass (diameter: 12 mm) was placed in a 12-well plate. On the cover glass, 2.5×10^5 cells were seeded and grown. After 24 hours, the medium was replaced with a medium free of fetal bovine serum, and the cells were cultured for another 24 hours. Separately, cardiac fibroblasts were isolated from 1 to 2-day-old rats and treated in the same manner as for the dermal fibroblasts. Thereafter, 10 ng/ml TGFβ1 was added to the dermal fibroblasts, and 2 ng/ml TGFβ2 was added to the cardiac fibroblasts, followed by culturing the cells for 48 hours. At the same time as TGFβ was added, 10 μM of a test compound (compound 011), 10 μM of Pyr 2 (conventional inhibitor), or DMSO (solvent control) was also added. Separately, cultured cells to which TGFβ-free phosphate buffered saline (PBS) was added were also prepared. […] After blocking with 1% bovine serum albumin, α-SMA was detected using anti-α-SMA antibody (Sigma) as the primary antibody and anti-mouse IgG antibody (Molecular Probes) fused with Alexa 488 as the secondary antibody, and an image was acquired using a fluorescence microscope (Keyence) with a 20× objective lens. The average fluorescence brightness (fluorescence intensity/pixel) per cell area was calculated and analyzed using Image J software.

O=C(O)c1cnc(N2CCN(c3noc4cccc(C(F)(F)F)c34)CC2)c(Cl)c1 [Compound 011, 5-chloro-6-(4-(4-(trifluoromethyl)benzo[d]isoxazol-3-yl)piperazin-1-yl) nicotinic acid]
expression of α-SMA induced by TGFβ (immunofluorescent staining): almost completely suppressed the expression of α-SMA
